From patent US20050222048A1, “Novel synthetic C-glycolipids, their synthesis and use to treat infections, cancer and autoimmune diseases” (The Research Foundation of The City University of New York, priority 2004, published 2005) come the findings set out here.

In this assay the test system is IFN-γ. Put plainly: Serum IFN-γ concentration by sandwich ELISA after i.v. injection of glycolipid into mice. It counts as in vivo. The following applies: BALB/c mice, 1 μg i.v., ELISA at 2, 6, 12 and 24 hours post-injection. The method, then: α-Galactosylceramide (α-GalCer, KRN or KRN7000) was synthesized by Kirin Brewery (Gumma, Japan). The stock solution was dissolved in a 0.5% polysorbate −20 (Nikko Chemical, Tokyo), 0.9% NaCl solution at a concentration of 200 μg/ml, and diluted in PBS just before injection into mice. α-C-galactosylceramide (α-C-GalCer, CRONY or CRONY-101) was synthesized as described in commonly owned U.S. patent application Ser. No. 10/462,211. Compounds […], GCK75(a) and GCK75(b) were synthesized as described herein. The stock solution was originally dissolved in 100% DMSO at a concentration of 1 mg/ml. Before injection into mice, it was diluted to a concentration of 200 μg/ml in a 0.5% polysorbate-20 (Nikko Chemical, Tokyo), 0.9% NaCl solution, and diluted in PBS just before injection into mice. […]
The serum concentrations of IFN-γ were measured at 2, 6, 12, and 24 hours after treatment with α-GalCer, α-C-GalCer, compound […], GCK75(a), GCK75(b), or nothing using a sandwich ELISA (e-bioscience, San Diego).
To compare the timing of immunological responses to α-GalCer (KRN), α-C-GalCer (CRONY), GCM11i, GCK75(a), and GCK75(b), mice were injected intravenously (i.v.) with 1 μg of each of the glycolipids or with nothing. At 2, 6, 12, and 24 hours post-injection, IFN-γ concentrations in the sera were measured by ELISA.
On the technique in general: ELISA stands for enzyme-linked immunosorbent assay.

With α-C-galactosylceramide [α-C-GalCer], the “time of peak IFN-γ response in the sera post-injection” value came out at 24 h.
